Experimental data taken from PMC10073473, “Integrative omics-analysis of lipid metabolism regulation by peroxisome proliferator-activated receptor a and b agonists in male Atlantic cod” (Frontiers in Physiology, 2023).

Target: T1, Pparb (gmPparb) (Gadus morhua, UniProt A0A8C4ZA29)
T1 construct: gene PPARD
T1 sequence (A0A8C4ZA29 216-511 limits assumed): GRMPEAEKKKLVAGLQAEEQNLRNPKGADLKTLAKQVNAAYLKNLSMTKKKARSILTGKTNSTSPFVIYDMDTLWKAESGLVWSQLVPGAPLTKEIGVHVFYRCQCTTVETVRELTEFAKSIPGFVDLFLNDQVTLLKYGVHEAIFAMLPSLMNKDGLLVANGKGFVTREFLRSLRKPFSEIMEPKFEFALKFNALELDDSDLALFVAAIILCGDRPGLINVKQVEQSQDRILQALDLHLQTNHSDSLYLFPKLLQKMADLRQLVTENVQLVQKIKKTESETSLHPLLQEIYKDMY
Test: GAL4-LBD luciferase reporter gene assay in COS-7 cells
Type: cell-based

`Cc1cc(SCc2sc(-c3ccc(C(F)(F)F)cc3)nc2C)ccc1OCC(=O)O` [GW501516, 2-[2-Methyl-4-[[[4-methyl-2-[4-(trifluoromethyl)phenyl]-5-thiazolyl]methyl]thio]phenoxy]-acetic acid] showed an EC50 of 5.9 µM.
